Tests used:
PIP5K1C = biological target: T1, PIP5K1C (Homo sapiens, UniProt O60331); experiment: KINOMEscan; type: binding; settings: read-out: % Ctrl
T1 construct: purchased DiscoveRx KINOMEscan

CSNK1E = biological target: T2, CSNK1E (Homo sapiens, UniProt P49674); experiment: KINOMEscan; type: binding; settings: read-out: % Ctrl
T2 construct: purchased DiscoveRx KINOMEscan

EGFR = biological target: T3, EGFR (Homo sapiens, UniProt P00533); experiment: KINOMEscan; type: binding; settings: read-out: % Ctrl
T3 construct: purchased DiscoveRx KINOMEscan
T3 sequence (P00533 25-1210): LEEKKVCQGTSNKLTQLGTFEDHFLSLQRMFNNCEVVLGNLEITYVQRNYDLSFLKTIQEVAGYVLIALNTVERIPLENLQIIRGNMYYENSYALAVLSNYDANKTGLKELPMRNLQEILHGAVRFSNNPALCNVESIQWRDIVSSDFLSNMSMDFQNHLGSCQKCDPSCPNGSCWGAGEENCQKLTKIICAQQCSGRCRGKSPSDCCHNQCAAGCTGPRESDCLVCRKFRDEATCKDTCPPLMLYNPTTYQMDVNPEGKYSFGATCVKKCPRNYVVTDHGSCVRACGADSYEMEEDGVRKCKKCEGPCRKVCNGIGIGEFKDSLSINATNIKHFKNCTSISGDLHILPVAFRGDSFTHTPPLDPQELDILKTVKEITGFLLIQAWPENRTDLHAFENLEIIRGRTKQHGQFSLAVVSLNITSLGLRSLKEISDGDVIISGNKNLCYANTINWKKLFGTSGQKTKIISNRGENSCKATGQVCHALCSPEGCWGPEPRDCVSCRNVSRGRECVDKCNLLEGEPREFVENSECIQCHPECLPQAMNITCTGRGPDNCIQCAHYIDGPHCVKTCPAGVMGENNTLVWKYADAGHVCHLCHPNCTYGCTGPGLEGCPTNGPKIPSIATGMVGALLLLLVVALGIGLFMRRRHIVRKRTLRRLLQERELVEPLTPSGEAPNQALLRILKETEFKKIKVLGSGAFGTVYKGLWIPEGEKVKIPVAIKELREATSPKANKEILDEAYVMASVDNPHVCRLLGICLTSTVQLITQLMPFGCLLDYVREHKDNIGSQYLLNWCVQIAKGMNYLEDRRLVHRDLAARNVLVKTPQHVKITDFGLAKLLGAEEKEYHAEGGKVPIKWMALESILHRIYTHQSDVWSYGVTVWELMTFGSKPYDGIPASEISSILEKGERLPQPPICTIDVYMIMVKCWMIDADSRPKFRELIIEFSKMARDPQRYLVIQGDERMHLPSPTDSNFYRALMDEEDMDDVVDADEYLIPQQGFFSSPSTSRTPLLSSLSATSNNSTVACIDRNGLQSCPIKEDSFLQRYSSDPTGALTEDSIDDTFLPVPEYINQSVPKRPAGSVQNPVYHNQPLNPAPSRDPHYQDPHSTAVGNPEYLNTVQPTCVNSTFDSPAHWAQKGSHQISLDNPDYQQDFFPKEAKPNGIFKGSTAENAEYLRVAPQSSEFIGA

MST4 = biological target: T4, MST4 (Homo sapiens, UniProt Q9P289); experiment: KINOMEscan; type: binding; settings: read-out: % Ctrl
T4 construct: purchased DiscoveRx KINOMEscan
T4 sequence (Q9P289 whole entry): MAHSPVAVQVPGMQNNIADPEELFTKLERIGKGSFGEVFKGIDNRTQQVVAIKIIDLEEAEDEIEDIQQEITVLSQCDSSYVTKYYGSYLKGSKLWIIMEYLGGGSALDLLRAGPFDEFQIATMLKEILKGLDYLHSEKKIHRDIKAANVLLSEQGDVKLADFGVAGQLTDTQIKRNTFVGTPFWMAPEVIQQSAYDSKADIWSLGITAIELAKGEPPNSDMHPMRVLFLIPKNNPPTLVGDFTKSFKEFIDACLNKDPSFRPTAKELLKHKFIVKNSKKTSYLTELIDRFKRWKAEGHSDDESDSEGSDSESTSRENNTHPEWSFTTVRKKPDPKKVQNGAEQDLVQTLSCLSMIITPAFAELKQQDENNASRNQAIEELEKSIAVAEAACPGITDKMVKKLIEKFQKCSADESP

EGFR(G719S) = biological target: T5, EGFR(G719S) (Homo sapiens, UniProt P00533, G719S); experiment: KINOMEscan; type: binding; settings: read-out: % Ctrl
T5 construct: purchased DiscoveRx KINOMEscan
T5 sequence (P00533 25-1210 G719S): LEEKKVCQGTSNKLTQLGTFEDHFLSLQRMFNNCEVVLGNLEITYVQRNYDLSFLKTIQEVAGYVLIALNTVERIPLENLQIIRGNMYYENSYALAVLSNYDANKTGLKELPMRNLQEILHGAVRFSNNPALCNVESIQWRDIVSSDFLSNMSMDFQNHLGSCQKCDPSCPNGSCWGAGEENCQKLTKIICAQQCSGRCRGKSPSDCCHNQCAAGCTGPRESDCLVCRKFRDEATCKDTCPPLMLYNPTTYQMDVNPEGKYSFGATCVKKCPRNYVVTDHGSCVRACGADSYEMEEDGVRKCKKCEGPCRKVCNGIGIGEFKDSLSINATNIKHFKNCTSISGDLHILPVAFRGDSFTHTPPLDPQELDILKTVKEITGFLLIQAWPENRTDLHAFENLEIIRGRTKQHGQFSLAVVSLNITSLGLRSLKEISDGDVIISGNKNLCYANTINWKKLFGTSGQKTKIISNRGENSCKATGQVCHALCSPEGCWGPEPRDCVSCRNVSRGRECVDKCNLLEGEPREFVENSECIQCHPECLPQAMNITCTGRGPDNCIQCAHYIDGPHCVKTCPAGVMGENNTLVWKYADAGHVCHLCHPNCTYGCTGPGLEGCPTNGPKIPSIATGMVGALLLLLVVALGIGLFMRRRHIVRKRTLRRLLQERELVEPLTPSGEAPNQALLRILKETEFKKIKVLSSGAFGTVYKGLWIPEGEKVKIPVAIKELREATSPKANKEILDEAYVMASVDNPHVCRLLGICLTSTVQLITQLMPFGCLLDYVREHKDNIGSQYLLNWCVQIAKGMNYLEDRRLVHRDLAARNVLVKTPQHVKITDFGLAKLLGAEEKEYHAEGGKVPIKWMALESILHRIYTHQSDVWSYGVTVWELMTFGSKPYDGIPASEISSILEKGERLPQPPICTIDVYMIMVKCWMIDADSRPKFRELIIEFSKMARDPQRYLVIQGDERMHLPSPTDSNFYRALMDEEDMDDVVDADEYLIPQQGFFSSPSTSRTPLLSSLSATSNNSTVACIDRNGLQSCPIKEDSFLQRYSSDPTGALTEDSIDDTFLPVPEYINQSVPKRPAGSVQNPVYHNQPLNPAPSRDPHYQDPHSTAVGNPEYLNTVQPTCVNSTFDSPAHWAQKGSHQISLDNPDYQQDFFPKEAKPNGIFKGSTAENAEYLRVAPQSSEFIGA

PDAC1 xenografts = experiment: PDX treatment in nude mice; type: in vivo, NU-Foxn1nu nude mice; settings: PDAC1 PDX; GEM 125 mg/kg i.p. biweekly, SIR 30 mg/kg oral gavage; 23 days
Method: (§1) Cells were analyzed with a 4-laser Attune NxT Acoustic Cytometer (ThermoFisher Scientific). Cells and digested tumors (as described in [41]) were resuspended in FLOW buffer (1X PBS; 3 mM EDTA (v/v); 3% FBS (v/v)), and the following fluorescently-tagged antibodies were used to label cells for 30 min at 4 °C: Mouse monoclonal anti-human CD133-PE (1:20, Cat no. 130-110-962, Miltenyi, Bergisch Gladbach, Germany), Mouse monoclonal anti-human CD133-APC (1:20, Cat no. 130-111-080, Miltenyi, Bergisch Gladbach, Germany), mouse monoclonal anti-human C-X-C chemokine receptor type 4- Phycoerythrin (CXCR4-PE) (1:20, Cat no. 130-117-354, Miltenyi, Bergisch Gladbach, Germany), or mouse monoclonal anti-human Epithelial cell adhesion molecule-fluorescein isothiocyanate (EpCAM-FITC) (1:20, Cat no. 130-111-115, Miltenyi, Bergisch Gladbach, Germany). Autofluorescent cells were excited with blue laser 488nm and selected as the intersection with the filters 530/40 and 580/30 as previously described. For lysosomes quantification, Acridine Orange (AO) (A1301, Thermo Fisher Scientific, Waltham, MA, USA) or Lysotracker Deep Red (DR) (L12492, Molecular probes, Life Technologies, Waltham, MA, USA) were used. AO fluorescence was assessed with two combinations of excitation and emission spectra: BL1 […] BL3 (Ex488/Em695/40, equal to the far-red channel (>670 nm)) Lysotracker DR fluorescence was assessed with RL1 (Ex638/Em670/14). Bafilomycin A1 (100 nM, Calbiochem, San Diego, CA, USA) was included as a positive control for lysosome disruption. For Annexin V staining, floating and attached cells were pooled and resuspended in 1× AnnexinV staining buffer containing AnnexinV-APC diluted 1:20 (Biotium, Freemont, CA, USA) and incubated for 20 min at room temperature prior to flow cytometric analysis. For all assays, DAPI was used to mark and exclude dead cells, and data were analyzed using the software FlowJo v9.3 (Tree Star Inc., Ashland, OR, USA).
(§2) Female 6- to 8-week-old NU-Foxn1nu nude mice (Envigo, Spain) were subcutaneously injected with control or pre-treated 1 × 10^4 PDAC cells in 50 µL of Matrigel^TM (Corning). Tumor growth was monitored bi-weekly for up to 10 weeks. For Siramesine experiments, mice were subcutaneously implanted with PDAC1 and PDAC3 PDXs. After 4 weeks of tumor growth, mice were randomized into treatment groups (5 mice per group). Mice were treated with Siramesine twice a week (30 mg/kg by oral gavage formulated in 0.5% methylcellulose 15 cP in 0.9% NaCl solution) for ~4 weeks. Gemcitabine (GEMZAR®, Eli Lilly, Indianapolis, IN, USA) was administered twice a week (125 mg/kg i.p.) for ~4 weeks. Tumor volumes (mm^3) were determined twice per week using a digital caliper. Mice were sacrificed at 24 days post treatment initiation and tumors were extracted and analyzed by flow cytometry as described above. For second generation tumor formation, 1000 and 100 cells of indicated treatment groups were resuspended in Matrigel ^TM and injected subcutaneously in recipient NU-Foxn1nu nude mice and tumor formation was monitored for 10 weeks. Mice were housed according to institutional guidelines and all experiments were performed in compliance with the institutional guidelines for the welfare of experimental animals approved by the Universidad Autónoma de Madrid Ethics Committee (CEI 60-1057-A068) or by the Instituto de Salud Carlos III Ethics Committee (CBA12_2014-v3) and La Comunidad de Madrid (PROEX 335/14 or PROEX 53/14) and in accordance with the guidelines for Ethical Conduct in the Care and Use of Animals as stated in The International Guiding Principles for Biomedical Research involving Animals, developed by the Council for International Organizations of Medical Sciences (CIOMS).

PDAC3 xenografts = experiment: PDX treatment in nude mice; type: in vivo, NU-Foxn1nu nude mice
Method: as §1, §2

T2 sequence (P49674 whole entry): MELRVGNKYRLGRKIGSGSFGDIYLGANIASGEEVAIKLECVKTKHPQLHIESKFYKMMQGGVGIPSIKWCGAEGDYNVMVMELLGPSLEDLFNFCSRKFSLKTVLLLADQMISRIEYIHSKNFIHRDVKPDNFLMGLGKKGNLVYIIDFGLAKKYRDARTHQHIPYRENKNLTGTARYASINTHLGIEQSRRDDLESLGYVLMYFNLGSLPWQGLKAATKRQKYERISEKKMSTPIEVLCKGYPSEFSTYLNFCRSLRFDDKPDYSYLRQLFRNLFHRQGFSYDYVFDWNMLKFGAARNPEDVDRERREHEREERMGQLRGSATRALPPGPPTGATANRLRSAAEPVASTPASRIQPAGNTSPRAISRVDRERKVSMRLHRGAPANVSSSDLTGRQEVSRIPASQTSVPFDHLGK
T1 sequence (O60331 whole entry): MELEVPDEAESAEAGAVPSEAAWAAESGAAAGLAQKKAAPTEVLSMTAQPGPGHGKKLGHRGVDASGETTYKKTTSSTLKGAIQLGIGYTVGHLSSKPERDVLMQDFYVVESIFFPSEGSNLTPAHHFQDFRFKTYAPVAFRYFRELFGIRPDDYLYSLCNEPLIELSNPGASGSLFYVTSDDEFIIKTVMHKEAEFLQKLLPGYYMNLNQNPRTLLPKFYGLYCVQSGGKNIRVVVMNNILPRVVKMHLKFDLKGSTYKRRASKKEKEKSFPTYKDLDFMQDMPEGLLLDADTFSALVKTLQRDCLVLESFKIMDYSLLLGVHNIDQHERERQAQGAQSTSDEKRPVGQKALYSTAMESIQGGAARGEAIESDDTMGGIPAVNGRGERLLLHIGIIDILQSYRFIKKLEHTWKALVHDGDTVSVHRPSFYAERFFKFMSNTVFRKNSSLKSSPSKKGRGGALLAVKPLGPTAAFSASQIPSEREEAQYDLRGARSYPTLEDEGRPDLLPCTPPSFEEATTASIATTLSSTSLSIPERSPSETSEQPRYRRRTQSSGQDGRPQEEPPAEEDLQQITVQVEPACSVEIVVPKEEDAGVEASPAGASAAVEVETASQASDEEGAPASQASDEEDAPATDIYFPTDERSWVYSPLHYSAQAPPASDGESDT

| Compound | remaining binding at 1 µM (PIP5K1C) [%] | remaining binding at 1 µM (CSNK1E) [%] | remaining binding at 1 µM (EGFR) [%] | remaining binding at 1 µM (MST4) [%] | remaining binding at 1 µM (EGFR(G719S)) [%] | tumor volume versus control (PDAC1 xenografts) | tumor volume versus control (PDAC3 xenografts; PDAC3 PDX, GEM 125 mg/kg i.p. biweekly, SIR 30 mg/kg oral gavage, 23 days) | percentage of CD133+ and CD133+/CXCR4+ in tumors (PDAC3 xenografts; PDAC3 tumors, 30 mg/kg) |
| --- | --- | --- | --- | --- | --- | --- | --- | --- |
| CN1CCC(CNc2ccc3ncc(C(=O)Nc4cccc(OC(F)(F)F)c4)n3n2)CC1 [Cpd 2] | 74 | 95 | 94 | 100 | 100 |  |  |  |
| Fc1ccc(-n2cc(CCCCN3CCC4(CC3)OCc3ccccc34)c3ccccc32)cc1 [siramesine] |  |  |  |  |  | no significant differences | no significant differences | reduce |
